# Assay results taken from patent US20150284452A1, “ANTIMICROBIAL COMPOSITIONS” (priority 2012, published 2015).
# Tested on: S. aureus NRS384 (USA300)
# Experiment: MIC assay at multiple inoculum sizes
# Assay type: cell-based, Staphylococcus aureus
# Excerpt: 5×10^6 cfu/ml and 75 nanomolar against an inoculum of 5×10^8 cfu/ml.
# [1] = High Titer 5,000,000 CFU/well, ND = higher than highest tested concentration
# [2] = High Titer 500,000,000 CFU/well, ND = higher than highest tested concentration
# [3] = Low Titer 50,000,000 CFU/well, ND = higher than highest tested concentration
substance,measurement,setting,value
"Lysostaphin (Sigma L9043): lysostaphin control (Sigma L9043), glycylglycine endopeptidase",MIC Rep 1,[1],0.0271 µM
same,MIC Rep 2,[1],0.0271 µM
same,MIC Ave,"High Titer 5,000,000 CFU/well, average of replicates",0.0271 µM
same,MIC Ave,[2],0.2 µM
same,MIC Rep 2,[2],0.2 µM
same,MIC Rep 1,"Low Titer 50,000 CFU/well",0.054 µM
same,MIC Rep 2,"Low Titer 50,000 CFU/well",0.0271 µM
same,MIC Ave,"Low Titer 50,000 CFU/well, average of replicates",0.0407 µM
same,MIC Ave,[3],0.2 µM
same,MIC Rep 1,[3],0.2 µM
same,MIC Rep 2,[3],0.2 µM
